Source: ChEMBL document CHEMBL5053556, “Design, Synthesis, and Biological Evaluation of a Novel Series of Teriflunomide Derivatives as Potent Human Dihydroorotate Dehydrogenase Inhibitors for Malignancy Treatment” (J Med Chem, 2021)
Converted amounts (≈) assume the structure as drawn.

Assays:
[1] = target: T1, Dihydroorotate dehydrogenase (quinone), mitochondrial (Homo sapiens, UniProt Q02127)
Description: Inhibition of human DHODH using dihydroorotate substrate preincubated for 30 mins followed by substrate addition by DCIP based microplate reader analysis

[2] = target: T1, Dihydroorotate dehydrogenase (quinone), mitochondrial; conditions: dose 100.0 nM, time 30.0 min
[3] = test system: Raji; assay: Antiproliferative activity against human Raji cells assessed as cell growth inhibition incubated for 96 hrs by MTT assay; format: functional, cell-based
[4] = test system: SK-MEL-28; assay: Antiproliferative activity against human SK-MEL-28 cells assessed as cell growth inhibition incubated for 96 hrs by MTT assay; format: functional, cell-based; conditions: SK-MEL-28, 96 h
[5] = test system: HCT-116; assay: Antiproliferative activity against human HCT-116 cells assessed as cell growth inhibition incubated for 96 hrs by MTT assay; format: functional, cell-based; conditions: HCT-116, 96 h
[6] = test system: K562; assay: Antiproliferative activity against human K562 cells assessed as cell growth inhibition incubated for 96 hrs by MTT assay; format: functional, cell-based; conditions: K562, 96 h
[7] = test system: L02; assay: cells; format: ADME, cell-based; conditions: Homo sapiens, L02, 96 h
Description: Cytotoxicity against human L02 cells assessed as cell growth inhibition incubated for 96 hrs by MTT assay

[8] = test system: A549; assay: Antiproliferative activity against human A549 cells assessed as cell growth inhibition incubated for 96 hrs by MTT assay; format: functional, cell-based; conditions: A549, 96 h
[9] = test system: A-375; assay: Antiproliferative activity against human A-375 cells assessed as cell growth inhibition incubated for 96 hrs by MTT assay; format: functional, cell-based; conditions: A-375, 96 h
[10] = Acute toxicity in BALB/c mouse assessed effect on feeding at 400 mg/kg, po; format: organism-based; conditions: in vivo
[11] = test system: HEL; assay: Antiproliferative activity against human HEL cells assessed as cell growth inhibition incubated for 96 hrs by MTT assay; format: functional, cell-based
[12] = AUC(0 to t) in Sprague-Dawley rat at 5 mg/kg, iv measured after 48 hrs by LC-MS analysis; format: ADME, organism-based; set-up: time 48 hrs, dose 5 mg/kg, route iv; conditions: Sprague-Dawley, in vivo
[13] = Microsomal stability in mouse liver microsomes assessed as half life at 1 uM measured upto 120 mins in presence of NADPH by LC-MS analysis; format: ADME, Microsome
[14] = test system: Mus musculus; assay: Toxicity in NOD-SCID mouse xenografted with human Raji cells assessed as mortality at 40 mg/kg, po administered for 25 days; format: organism-based; conditions: in vivo, 600 h, time 25 day
[15] = physchem; conditions: aqueous
Description: Aqueous solubility of compound by UPLC method

[16] = Microsomal stability in human liver microsomes assessed as half life at 1 uM measured upto 120 mins in presence of NADPH by LC-MS analysis; format: ADME, Microsome
[17] = Acute toxicity in BALB/c mouse assessed as effect on heart at 400 mg/kg, po measured on day 14 by H and E staining based assay; format: organism-based; conditions: in vivo, 336 h, time 14 day
[18] = AUC(0 to t) in Sprague-Dawley rat at 15 mg/kg, po measured after 48 hrs by LC-MS analysis; format: ADME, organism-based; set-up: dose 15 mg/kg, time 48 hrs, route po; conditions: in vivo
[19] = Acute toxicity in BALB/c mouse assessed as effect on kidney at 400 mg/kg, po measured on day 14 by H and E staining based assay; format: organism-based; conditions: in vivo, 336 h, time 14 day
[20] = Clearance in Sprague-Dawley rat at 15 mg/kg, po measured after 48 hrs by LC-MS analysis; format: ADME, organism-based; conditions: in vivo
[21] = Clearance in Sprague-Dawley rat at 5 mg/kg, iv measured after 48 hrs by LC-MS analysis; format: ADME, organism-based; conditions: Sprague-Dawley, in vivo
[22] = Half life in Sprague-Dawley rat at 15 mg/kg, po measured after 48 hrs by LC-MS analysis; format: ADME, organism-based; conditions: in vivo
[23] = test system: Raji; assay: Antitumor activity against human Raji cells xenografted in NOD-SCID mouse assessed as tumor growth inhibition at 40 mg/kg, po administered for 25 days; format: functional; conditions: 600 h, time 25 day, read-out: TGI
[24] = test system: HL-60; assay: Antiproliferative activity against human HL-60 cells assessed as cell growth inhibition incubated for 96 hrs by MTT assay; format: functional, cell-based; conditions: HL-60, 96 h
[25] = Tmax in Sprague-Dawley rat at 15 mg/kg, po measured after 48 hrs by LC-MS analysis; format: ADME, organism-based; conditions: in vivo
[26] = in vitro; conditions: human, Caco-2
Description: Apparent permeability across apical to basolateral side in human Caco-2 cells incubated for 90 mins by LC-MS analysis

[27] = Acute toxicity in BALB/c mouse assessed as effect on lung at 400 mg/kg, po measured on day 14 by H and E staining based assay; format: organism-based; conditions: in vivo, 336 h, time 14 day
[28] = Plasma protein binding in rat at 0.1 uM incubated for 5 hrs by LC-MS analysis; format: ADME, cell-free; conditions: read-out: PPB (converted)
[29] = test system: Mus musculus; assay: Toxicity in NOD-SCID mouse xenografted with human Raji cells assessed as change in uric acid level at 40 mg/kg, po administered for 25 days; format: organism-based; conditions: in vivo, 600 h, time 25 day
[30] = test system: Mus musculus; assay: Toxicity in NOD-SCID mouse xenografted with human Raji cells assessed as change in UREAL at 40 mg/kg, po administered for 25 days; format: organism-based; conditions: in vivo, 600 h, time 25 day
[31] = test system: Daudi; assay: Antiproliferative activity against human Daudi cells assessed as cell growth inhibition incubated for 96 hrs by MTT assay; format: functional, cell-based
[32] = test system: MV4-11; assay: Antiproliferative activity against human MV4-11 cells assessed as cell growth inhibition incubated for 96 hrs by MTT assay; format: functional, cell-based; conditions: MV4-11, 96 h
[33] = in vitro; conditions: human, L02 cells and Raji cells
Description: Selectivity index, ratio of IC50 for human L02 cells to IC50 for human Raji cells

[34] = in vitro; conditions: human, Caco-2; remark: listed apart in the source
Description: Efflux ratio of apparent permeability across basolateral to apical side over apical to basolateral side in human Caco-2 cells

[35] = test system: THP-1; assay: Antiproliferative activity against human THP-1 cells assessed as cell growth inhibition incubated for 96 hrs by MTT assay; format: functional, cell-based; conditions: THP-1, 96 h
[36] = Cmax in Sprague-Dawley rat at 15 mg/kg, po measured after 48 hrs by LC-MS analysis; format: ADME, organism-based; set-up: dose 15 mg/kg, time 48 hrs, route po; conditions: in vivo
[37] = Plasma protein binding in rat at 1 uM incubated for 5 hrs by LC-MS analysis; format: ADME, cell-free; conditions: read-out: PPB (converted)
[38] = Acute toxicity in BALB/c mouse assessed as effect on spleen at 400 mg/kg, po measured on day 14 by H and E staining based assay; format: organism-based; conditions: in vivo, 336 h, time 14 day
[39] = Microsomal stability in rat liver microsomes assessed as half life at 1 uM measured upto 120 mins in presence of NADPH by LC-MS analysis; format: ADME, Microsome
[40] = test system: SUD4; assay: Antiproliferative activity against human SU-DHL-4 cells assessed as cell growth inhibition incubated for 96 hrs by MTT assay; format: functional, cell-based; conditions: SU-DHL-4, 96 h
[41] = Acute toxicity in BALB/c mouse assessed change in behavior at 400 mg/kg, po; format: organism-based; conditions: in vivo
[42] = in vitro; conditions: human, Caco-2; remark: listed apart in the source
Description: Apparent permeability across basolateral to apical side in human Caco-2 cells incubated for 90 mins by LC-MS analysis

[43] = Oral bioavailability in Sprague-Dawley rat at 15 mg/kg measured after 48 hrs by LC-MS analysis; format: ADME, organism-based; conditions: in vivo
[44] = test system: SU-DHL-6; assay: Antiproliferative activity against human SU-DHL-6 cells assessed as cell growth inhibition incubated for 96 hrs by MTT assay; format: functional, cell-based; conditions: SU-DHL-6, 96 h
[45] = Plasma protein binding in rat at 10 uM incubated for 5 hrs by LC-MS analysis; format: ADME, cell-free; conditions: read-out: PPB (converted)
[46] = Acute toxicity in BALB/c mouse assessed as effect on liver at 400 mg/kg, po measured on day 14 by H and E staining based assay; format: organism-based; conditions: in vivo, 336 h, time 14 day
[47] = test system: Mus musculus; assay: Toxicity in NOD-SCID mouse xenografted with human Raji cells assessed as change in ALT level at 40 mg/kg, po administered for 25 days; format: organism-based; conditions: in vivo, 600 h, time 25 day
[48] = test system: Mus musculus; assay: Toxicity in NOD-SCID mouse xenografted with human Raji cells assessed as change in AST level at 40 mg/kg, po administered for 25 days; format: organism-based; conditions: in vivo, 600 h, time 25 day
[49] = Acute toxicity in BALB/c mouse assessed effect on body weight at 400 mg/kg, po; format: organism-based; conditions: in vivo
[50] = Half life in Sprague-Dawley rat at 5 mg/kg, iv measured after 48 hrs by LC-MS analysis; format: ADME, organism-based; conditions: in vivo

T1 sequence (Q02127 whole entry): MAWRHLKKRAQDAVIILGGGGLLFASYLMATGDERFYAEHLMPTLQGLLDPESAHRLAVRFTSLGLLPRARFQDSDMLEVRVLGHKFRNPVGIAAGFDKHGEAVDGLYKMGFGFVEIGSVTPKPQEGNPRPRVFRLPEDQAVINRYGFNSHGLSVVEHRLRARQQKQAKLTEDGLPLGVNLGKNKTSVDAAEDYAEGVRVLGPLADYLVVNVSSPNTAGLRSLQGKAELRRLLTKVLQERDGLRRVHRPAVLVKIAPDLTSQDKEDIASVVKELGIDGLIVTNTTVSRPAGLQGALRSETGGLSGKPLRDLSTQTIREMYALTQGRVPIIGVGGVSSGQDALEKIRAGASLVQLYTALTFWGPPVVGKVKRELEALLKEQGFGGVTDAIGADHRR

COc1cc(NC(=O)/C(C#N)=C(/C)O)c(F)cc1C(=O)Nc1c(F)cccc1Br
IC50 [1]: 29.5 nM | inhibition [2]: 78.5%

COc1cccc(-c2cc(F)c(Nc3ncccc3C(=O)O)c(F)c2)c1 [ASLAN-003]
IC50 [3]: 300 nM | IC50 [4]: 1300 nM | IC50 [5]: 5100 nM | IC50 [6]: 2700 nM | IC50 [7]: 487 nM | IC50 [8]: 900 nM | inhibition [2]: 66.8% | IC50 [9]: 700 nM

C/C(O)=C(\C#N)C(=O)Nc1cc(O[C@@H](C)C(F)(F)F)c(C(=O)Nc2c(F)cccc2Cl)cc1F
Activity [10]: Non-Toxic | IC50 [11]: 20 nM | AUC(0-t) at 48 h [12]: 21500 ng·h/mL | half-life at 1 µM [13]: 2.46 h | Activity [14]: Non-Toxic | IC50 [1]: 6.9 nM | solubility [15]: 5200 µg/mL (≈ 10.3 mM) | IC50 [3]: 13.7 nM | half-life at 1 µM [16]: 2.31 h | Activity [17]: Non-Toxic | AUC(0-t) at 48 h [18]: 21100 ng·h/mL | Activity [19]: Non-Toxic | CL/F [20]: 11.7 mL/min/kg | IC50 [7]: 511 nM | clearance [21]: 5 mL/min/kg | half-life [22]: 8.7 h | inhibition in vivo at 40 mg/kg [23]: 73.1% | IC50 [24]: 20 nM | Tmax [25]: 12 h | Papp A→B at 1.5 h [26]: 0.29 ×10⁻⁶ cm/s | Activity [27]: Non-Toxic | fraction unbound at 5 h, 0.1 µM [28]: 0.278 | Activity [29]: Non-Toxic | Activity [30]: Non-Toxic | IC50 [31]: 20 nM | IC50 [32]: 20 nM | selectivity ratio [33]: 37.2 | efflux ratio [34]: 7 | IC50 [35]: 20 nM | Cmax [36]: 1320 ng/mL | fraction unbound at 5 h, 1 µM [37]: 0.057 | Activity [38]: Non-Toxic | half-life at 1 µM [39]: 0.77 h | IC50 [40]: 20 nM | Activity [41]: Non-Toxic | Papp B→A at 1.5 h [42]: 2.04 ×10⁻⁶ cm/s | bioavailability [43]: 32.8% | IC50 [44]: 20 nM | fraction unbound at 5 h, 10 µM [45]: 0.017 | Activity [46]: Non-Toxic | inhibition [2]: 93.6% | Activity [47]: Non-Toxic | Activity [48]: Non-Toxic | Activity [49]: Non-Toxic | half-life [50]: 4.6 h

CCOc1cc(NC(=O)/C(C#N)=C(/C)O)c(F)cc1C(=O)Nc1c(F)cccc1F
inhibition [2]: 40.2%

CCOc1cc(NC(=O)/C(C#N)=C(/C)O)c(F)cc1C(=O)Nc1c(F)cccc1Br
IC50 [1]: 40 nM | inhibition [2]: 72.7%

CCOc1cc(NC(=O)/C(C#N)=C(/C)O)c(F)cc1C(=O)Nc1c(Cl)cccc1Cl
IC50 [1]: 17.4 nM | IC50 [3]: 573 nM | IC50 [7]: 2710 nM | selectivity ratio [33]: 4.7 | inhibition [2]: 85.8%

C/C(O)=C(\C#N)C(=O)Nc1cc(O[C@@H](C)C(F)(F)F)c(C(=O)Nc2c(Cl)cccc2Cl)cc1F
IC50 [1]: 5.7 nM | solubility [15]: 2400 µg/mL (≈ 4.61 mM) | IC50 [3]: 32.1 nM | IC50 [7]: 452 nM | selectivity ratio [33]: 14.1 | inhibition [2]: 96.4%

C/C(O)=C(\C#N)C(=O)Nc1cc(OC(C)C)c(C(=O)Nc2c(F)cccc2Cl)cc1F
IC50 [1]: 22.4 nM | solubility [15]: 465 µg/mL (≈ 1.03 mM) | IC50 [3]: 300 nM | IC50 [4]: 300 nM | IC50 [5]: 7300 nM | IC50 [6]: 2300 nM | IC50 [8]: 900 nM | inhibition [2]: 70.7% | IC50 [9]: 1100 nM

COc1cc(NC(=O)/C(C#N)=C(/C)O)c(F)cc1C(=O)Nc1c(F)cccc1Cl
IC50 [1]: 31.1 nM | inhibition [2]: 67.7%

C/C(O)=C(\C#N)C(=O)Nc1cc(OC(C)C)c(C(=O)Nc2ccccc2F)cc1F
inhibition [2]: 23%

C/C(O)=C(\C#N)C(=O)Nc1ccc(C(=O)Nc2c(F)cccc2F)c(OC(C)C)c1
inhibition [2]: 53.4%

COc1ccccc1NC(=O)c1cc(F)c(NC(=O)/C(C#N)=C(/C)O)cc1OC(C)C
inhibition [2]: 5.3%

C/C(O)=C(\C#N)C(=O)Nc1cc(F)c(C(=O)Nc2c(F)cccc2Cl)cc1F
inhibition [2]: 26.4%

COc1cccc(NC(=O)c2cc(F)c(NC(=O)/C(C#N)=C(/C)O)cc2OC(C)C)c1
inhibition [2]: 21.3%
